According to paper PMC8689225, “Cardiac ryanodine receptor N-terminal region biosensors identify novel inhibitors via FRET-based high-throughput screening” (The Journal of Biological Chemistry, 2021):

Assays:
α2-adrenergic receptors = tested on: α2-adrenergic receptors; parameters: method as in PMID 7969082; conditions: cited from earlier work
RyR2 = target: T1, RyR2 (Sus scrofa, UniProt A0A5G2R1W3); experiment: [3H]ryanodine binding to cardiac SR (CSR) vesicles; type: biochemical, pig
T1 construct: from tissue; host or cells: porcine cardiac left ventricle, crude SR vesicles
Description: (§1) Crude sarcoplasmic reticulum membrane vesicles were isolated from porcine longissimus dorsi muscle and porcine cardiac left ventricle tissue by differential centrifugation of homogenized tissue, as established previously ([65]). Skeletal heavy SR (HSR) vesicles, which are enriched with RyR1, were isolated by fractionation of crude skeletal SR vesicles using a discontinuous sucrose gradient, in accordance with our published work ([65]). All vesicles were flash-frozen and stored at −80 °C.
(§2) In 96-well plates, skeletal SR membranes (HSR, 1 mg/ml) and cardiac SR membranes (CSR, 3 mg/ml) were preincubated with 1% DMSO or hit compound for 30 min at 22 °C in a solution containing 150 mM KCl, 5 mM GSH, 1 μg/ml Aprotinin/Leupeptin, 1 mM EGTA, and 65 μM or 1.02 mM CaCl2 (as determined by MaxChelator to yield 30 nM or 30 μM of free Ca^2+, respectively), 0.1 mg/ml of BSA, and 20 mM K-PIPES (pH 7.0). Nonspecific [^3H]ryanodine binding to SR was assessed by addition of 40 μM nonradioactively labeled ryanodine. Maximal [^3H]ryanodine binding was assessed by addition of 5 mM adenylyl-imidodiphosphate (AMP-PNP), and in the case of CSR, 20 mM caffeine was added. These control samples were each loaded over four wells per plate. Binding of [^3H]ryanodine (7.5 and 10 nM for CSR and HSR, respectively) was determined following a 3 h incubation at 37 °C and filtration through grade GF/B glass microfiber filters (Brandel Inc) using a Brandel Harvester. In 4 ml of Ecolite scintillation cocktail (MP biomedicals), [^3H]ryanodine retained on the filter was counted using a Beckman LS6000 scintillation counter.

mouse RyR2 NTR = target: T2, mouse RyR2 NTR (Mus musculus, UniProt E9Q401, K30C/K441C, form not given); experiment: FLT-FRET dose-response with AC-NTR biosensor; type: binding
T2 sequence (E9Q401 1-547 K30C/K441C): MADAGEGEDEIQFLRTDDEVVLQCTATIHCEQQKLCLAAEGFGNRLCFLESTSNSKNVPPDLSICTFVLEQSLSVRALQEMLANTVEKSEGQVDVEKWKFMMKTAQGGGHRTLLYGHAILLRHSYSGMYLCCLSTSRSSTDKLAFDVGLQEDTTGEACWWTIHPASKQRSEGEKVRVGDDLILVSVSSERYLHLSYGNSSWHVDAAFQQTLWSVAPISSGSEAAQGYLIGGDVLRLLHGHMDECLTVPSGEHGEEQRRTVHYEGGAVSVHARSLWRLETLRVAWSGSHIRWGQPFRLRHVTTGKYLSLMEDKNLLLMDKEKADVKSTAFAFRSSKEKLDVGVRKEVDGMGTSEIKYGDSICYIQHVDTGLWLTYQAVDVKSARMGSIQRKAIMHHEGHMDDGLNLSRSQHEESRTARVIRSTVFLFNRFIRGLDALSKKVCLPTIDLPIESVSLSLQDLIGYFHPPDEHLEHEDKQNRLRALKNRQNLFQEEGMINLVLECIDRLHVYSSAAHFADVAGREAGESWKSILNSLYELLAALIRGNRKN
From the text: The NTR of mouse RyR2 (residues 1–547) was cloned and expressed as previously described ([27]). The DNA construct contains a 6×His tag, a maltose-binding protein (MBP) tag, and a tobacco etch virus (TEV) protease cleavage site. The seven native solvent-exposed cysteine residues were substituted with alanine residues, and two constructs were engineered with Cys substitutions at surface residues R383 and K441 (in the B and C domains, respectively; termed BC) and at K30 and K441 (in the A and C domains, respectively; termed AC) for labeling with spectroscopic probes such as appropriate donor–acceptor fluorophores for FRET (for the purpose of this report, these are considered the WT forms of AC and BC). A variant of the BC construct corresponding to the disease-associated mutant (R420Q) was also prepared. For this site-directed mutagenesis work, we used the QuikChange (Stratagene) and Phusion High-Fidelity PCR (Thermo Fisher Scientific) kits. The WT-NTR, R420Q-NTR, AC- and BC-NTR, AC- and BC-R420Q-NTR protein constructs were expressed in Escherichia coli Rosetta (DE3) pLacI cells at 18 °C and purified with a protocol adapted from previously published work ([26]). An amylose column was first applied after the cells were lysed by ultrasonication. The protein in the elution was then cleaved using TEV protease. The cleaved crude protein went through the second amylose column to separate from the MBP and then followed by a Superdex S-200 size exclusion column in a buffer consisting of 250 mM KCl, 10 mM HEPES, and 14 mM β-mercaptoethanol (pH 7.4). The NTR protein (3 μM) was then incubated in 10 mM HEPES, 250 mM KCl (pH 7.4, 2 h, 21 °C) with the fluorescent probes Alexa Fluor 488 maleimide (AF488, donor; 40 μM) and Alexa Fluor 568 maleimide (AF568, acceptor; 60 μM). The maleimide of the dye reacts with the thiols the Cys residues engineered into NTR, forming a covalently labeled protein. The Alexa dyes were added last to the reaction mixture, from 10 mM DMSO stock solutions. This reaction is not selective to one site (K30C or K441C), and we anticipate that there is a mixed population with K30C or K441C labeled with either AF488 (donor) or AF568 (acceptor). We focused on maximizing the fraction containing donor–acceptor pairs, thus maximizing FRET efficiency and the precision for detecting a change in structure as an indication that a compound interacts with the NTR biosensor. The labeling efficiency was determined by comparing the molar concentration of the bound dye, determined from UV-Vis absorbance, to the protein concentration, determined from gel densitometry. Essentially complete labeling was confirmed from electrospray ionization mass spectrometry. CD spectra of the WT-NTR and mutant R420Q-NTR constructs before and after labeling were recorded using a JASCO J-815 CD spectrometer (JASCO), confirming similar folding (Fig. S1).
The 1536-well assay plates were prepared as described in our previous reports ([21]). The LOPAC (Sigma-Aldrich) collection received in 96-well plates was reformatted into 384-well polypropylene intermediate plates (Greiner Bio-One) using a multichannel liquid handler, BioMek FX (Beckman Coulter), then transferred to 384-well Echo Qualified source plates (Labcyte Inc). Assay plates were prepared as previously described ([20]). On screening days, these plates were thawed out and were loaded with labeled NTR (5 μl, 20 nM final concentration) using a Multidrop Combi automated sample dispenser.
HTS measurements were conducted in a prototype top-read FLT plate reader (FLT-PR, Fluorescence Innovations, Inc), which reads each 1536-well plate in ∼3 min ([63], [64]). AF488 donor fluorescence was excited with a 473 nm microchip laser from Concepts Research Corporation, and the emission signal was split into two channels by a dichroic mirror and acquired with 517 ± 10 nm (channel 1) and 535 ± 7 nm band-pass filters (channel 2) (Semrock). […]

RyR1 [1] = target: T3, RyR1 (Sus scrofa, UniProt P16960); experiment: [3H]ryanodine binding to skeletal SR (HSR) vesicles; type: biochemical, pig; conditions: for EC50: EC50, [3H]ryanodine binding, skeletal HSR, Table S4
T3 construct: from tissue; host or cells: porcine longissimus dorsi muscle, heavy SR vesicles
Description: as §1, §2

RyR1 [2] = target: T4, RyR1 (Rattus norvegicus, UniProt F1LMY4); experiment: t-tubule Ca2+ measurement of RyR1 leak in skinned skeletal muscle fibers; type: cell-based; conditions: 10 μM FA or 1 mM tetracaine, [Ca2+]cyto 200 nM
T4 construct: from tissue; host or cells: Wistar rat extensor digitorum longus (EDL), mechanically skinned single fibres
Description: All experimental methods using rodents were approved by the Animal Ethics Committees at The University of Queensland and were performed in accordance with the relevant guidelines and regulations. Five-month-old Wistar rats (UQ Biological Resources) were euthanized by asphyxiation via CO2 exposure, and the extensor digitorum longus (EDL) was rapidly excised. Once dissected, muscles were pinned to Sylgard set in a Petri dish containing paraffin oil.
Bundles of fibers were isolated and exposed to an internal solution containing rhod-5N, as described previously ([47]). After 15 min incubation, single skeletal muscle fibers were mechanically skinned and mounted in a custom-made chamber. […] For tracking Ca^2+ movements across the t-system membrane, images were continuously recorded in xyt mode with an aspect ratio of 256 × 512, with the long aspect of the image parallel with that of the preparation. Temporal resolution of imaging in this mode where the fluorescence signal was within the borders of the fiber was 0.8 s.
T-system rhod-5N fluorescence was converted to [Ca^2+]t-sys as previously described ([47]). To determine the effect of RyR modulators on the RyR Ca^2+ leak, isolated mechanically skinned fibers were continuously imaged as described above, to obtain a record of t-system rhod-5N fluorescence changes over time as the cytoplasmic solution bathing the fiber was changed. […]

[3] = tested on: rat skeletal muscle fibers; experiment: Electrically evoked Ca2+ transients in skinned skeletal muscle fibers; type: cell-based; conditions: 10 μM FA or 1 mM tetracaine, 1 Hz
From the text: Mechanically skinned fibers were isolated, mounted in a custom chamber, and bathed in a resting physiological solution containing rhod-2, as previously described ([21]). The Ca^2+-sensitive dye rhod-2 was used to track cytosolic Ca^2+ transients when exposed to electrical stimulation. Field pulses at 1 Hz frequency and 4 ms in duration were applied across platinum electrodes parallel to the long axis of the fiber. Imaging for electrical stimulation experiments was in xt mode, at a rate of 2 ms.line^−1. DMSO vehicle (0.01%), FA (10 μM), and tetracaine were added to the physiological solution. Each treatment was applied precisely at the seventh successive Ca^2+ transient.

T3 sequence (P16960 whole entry): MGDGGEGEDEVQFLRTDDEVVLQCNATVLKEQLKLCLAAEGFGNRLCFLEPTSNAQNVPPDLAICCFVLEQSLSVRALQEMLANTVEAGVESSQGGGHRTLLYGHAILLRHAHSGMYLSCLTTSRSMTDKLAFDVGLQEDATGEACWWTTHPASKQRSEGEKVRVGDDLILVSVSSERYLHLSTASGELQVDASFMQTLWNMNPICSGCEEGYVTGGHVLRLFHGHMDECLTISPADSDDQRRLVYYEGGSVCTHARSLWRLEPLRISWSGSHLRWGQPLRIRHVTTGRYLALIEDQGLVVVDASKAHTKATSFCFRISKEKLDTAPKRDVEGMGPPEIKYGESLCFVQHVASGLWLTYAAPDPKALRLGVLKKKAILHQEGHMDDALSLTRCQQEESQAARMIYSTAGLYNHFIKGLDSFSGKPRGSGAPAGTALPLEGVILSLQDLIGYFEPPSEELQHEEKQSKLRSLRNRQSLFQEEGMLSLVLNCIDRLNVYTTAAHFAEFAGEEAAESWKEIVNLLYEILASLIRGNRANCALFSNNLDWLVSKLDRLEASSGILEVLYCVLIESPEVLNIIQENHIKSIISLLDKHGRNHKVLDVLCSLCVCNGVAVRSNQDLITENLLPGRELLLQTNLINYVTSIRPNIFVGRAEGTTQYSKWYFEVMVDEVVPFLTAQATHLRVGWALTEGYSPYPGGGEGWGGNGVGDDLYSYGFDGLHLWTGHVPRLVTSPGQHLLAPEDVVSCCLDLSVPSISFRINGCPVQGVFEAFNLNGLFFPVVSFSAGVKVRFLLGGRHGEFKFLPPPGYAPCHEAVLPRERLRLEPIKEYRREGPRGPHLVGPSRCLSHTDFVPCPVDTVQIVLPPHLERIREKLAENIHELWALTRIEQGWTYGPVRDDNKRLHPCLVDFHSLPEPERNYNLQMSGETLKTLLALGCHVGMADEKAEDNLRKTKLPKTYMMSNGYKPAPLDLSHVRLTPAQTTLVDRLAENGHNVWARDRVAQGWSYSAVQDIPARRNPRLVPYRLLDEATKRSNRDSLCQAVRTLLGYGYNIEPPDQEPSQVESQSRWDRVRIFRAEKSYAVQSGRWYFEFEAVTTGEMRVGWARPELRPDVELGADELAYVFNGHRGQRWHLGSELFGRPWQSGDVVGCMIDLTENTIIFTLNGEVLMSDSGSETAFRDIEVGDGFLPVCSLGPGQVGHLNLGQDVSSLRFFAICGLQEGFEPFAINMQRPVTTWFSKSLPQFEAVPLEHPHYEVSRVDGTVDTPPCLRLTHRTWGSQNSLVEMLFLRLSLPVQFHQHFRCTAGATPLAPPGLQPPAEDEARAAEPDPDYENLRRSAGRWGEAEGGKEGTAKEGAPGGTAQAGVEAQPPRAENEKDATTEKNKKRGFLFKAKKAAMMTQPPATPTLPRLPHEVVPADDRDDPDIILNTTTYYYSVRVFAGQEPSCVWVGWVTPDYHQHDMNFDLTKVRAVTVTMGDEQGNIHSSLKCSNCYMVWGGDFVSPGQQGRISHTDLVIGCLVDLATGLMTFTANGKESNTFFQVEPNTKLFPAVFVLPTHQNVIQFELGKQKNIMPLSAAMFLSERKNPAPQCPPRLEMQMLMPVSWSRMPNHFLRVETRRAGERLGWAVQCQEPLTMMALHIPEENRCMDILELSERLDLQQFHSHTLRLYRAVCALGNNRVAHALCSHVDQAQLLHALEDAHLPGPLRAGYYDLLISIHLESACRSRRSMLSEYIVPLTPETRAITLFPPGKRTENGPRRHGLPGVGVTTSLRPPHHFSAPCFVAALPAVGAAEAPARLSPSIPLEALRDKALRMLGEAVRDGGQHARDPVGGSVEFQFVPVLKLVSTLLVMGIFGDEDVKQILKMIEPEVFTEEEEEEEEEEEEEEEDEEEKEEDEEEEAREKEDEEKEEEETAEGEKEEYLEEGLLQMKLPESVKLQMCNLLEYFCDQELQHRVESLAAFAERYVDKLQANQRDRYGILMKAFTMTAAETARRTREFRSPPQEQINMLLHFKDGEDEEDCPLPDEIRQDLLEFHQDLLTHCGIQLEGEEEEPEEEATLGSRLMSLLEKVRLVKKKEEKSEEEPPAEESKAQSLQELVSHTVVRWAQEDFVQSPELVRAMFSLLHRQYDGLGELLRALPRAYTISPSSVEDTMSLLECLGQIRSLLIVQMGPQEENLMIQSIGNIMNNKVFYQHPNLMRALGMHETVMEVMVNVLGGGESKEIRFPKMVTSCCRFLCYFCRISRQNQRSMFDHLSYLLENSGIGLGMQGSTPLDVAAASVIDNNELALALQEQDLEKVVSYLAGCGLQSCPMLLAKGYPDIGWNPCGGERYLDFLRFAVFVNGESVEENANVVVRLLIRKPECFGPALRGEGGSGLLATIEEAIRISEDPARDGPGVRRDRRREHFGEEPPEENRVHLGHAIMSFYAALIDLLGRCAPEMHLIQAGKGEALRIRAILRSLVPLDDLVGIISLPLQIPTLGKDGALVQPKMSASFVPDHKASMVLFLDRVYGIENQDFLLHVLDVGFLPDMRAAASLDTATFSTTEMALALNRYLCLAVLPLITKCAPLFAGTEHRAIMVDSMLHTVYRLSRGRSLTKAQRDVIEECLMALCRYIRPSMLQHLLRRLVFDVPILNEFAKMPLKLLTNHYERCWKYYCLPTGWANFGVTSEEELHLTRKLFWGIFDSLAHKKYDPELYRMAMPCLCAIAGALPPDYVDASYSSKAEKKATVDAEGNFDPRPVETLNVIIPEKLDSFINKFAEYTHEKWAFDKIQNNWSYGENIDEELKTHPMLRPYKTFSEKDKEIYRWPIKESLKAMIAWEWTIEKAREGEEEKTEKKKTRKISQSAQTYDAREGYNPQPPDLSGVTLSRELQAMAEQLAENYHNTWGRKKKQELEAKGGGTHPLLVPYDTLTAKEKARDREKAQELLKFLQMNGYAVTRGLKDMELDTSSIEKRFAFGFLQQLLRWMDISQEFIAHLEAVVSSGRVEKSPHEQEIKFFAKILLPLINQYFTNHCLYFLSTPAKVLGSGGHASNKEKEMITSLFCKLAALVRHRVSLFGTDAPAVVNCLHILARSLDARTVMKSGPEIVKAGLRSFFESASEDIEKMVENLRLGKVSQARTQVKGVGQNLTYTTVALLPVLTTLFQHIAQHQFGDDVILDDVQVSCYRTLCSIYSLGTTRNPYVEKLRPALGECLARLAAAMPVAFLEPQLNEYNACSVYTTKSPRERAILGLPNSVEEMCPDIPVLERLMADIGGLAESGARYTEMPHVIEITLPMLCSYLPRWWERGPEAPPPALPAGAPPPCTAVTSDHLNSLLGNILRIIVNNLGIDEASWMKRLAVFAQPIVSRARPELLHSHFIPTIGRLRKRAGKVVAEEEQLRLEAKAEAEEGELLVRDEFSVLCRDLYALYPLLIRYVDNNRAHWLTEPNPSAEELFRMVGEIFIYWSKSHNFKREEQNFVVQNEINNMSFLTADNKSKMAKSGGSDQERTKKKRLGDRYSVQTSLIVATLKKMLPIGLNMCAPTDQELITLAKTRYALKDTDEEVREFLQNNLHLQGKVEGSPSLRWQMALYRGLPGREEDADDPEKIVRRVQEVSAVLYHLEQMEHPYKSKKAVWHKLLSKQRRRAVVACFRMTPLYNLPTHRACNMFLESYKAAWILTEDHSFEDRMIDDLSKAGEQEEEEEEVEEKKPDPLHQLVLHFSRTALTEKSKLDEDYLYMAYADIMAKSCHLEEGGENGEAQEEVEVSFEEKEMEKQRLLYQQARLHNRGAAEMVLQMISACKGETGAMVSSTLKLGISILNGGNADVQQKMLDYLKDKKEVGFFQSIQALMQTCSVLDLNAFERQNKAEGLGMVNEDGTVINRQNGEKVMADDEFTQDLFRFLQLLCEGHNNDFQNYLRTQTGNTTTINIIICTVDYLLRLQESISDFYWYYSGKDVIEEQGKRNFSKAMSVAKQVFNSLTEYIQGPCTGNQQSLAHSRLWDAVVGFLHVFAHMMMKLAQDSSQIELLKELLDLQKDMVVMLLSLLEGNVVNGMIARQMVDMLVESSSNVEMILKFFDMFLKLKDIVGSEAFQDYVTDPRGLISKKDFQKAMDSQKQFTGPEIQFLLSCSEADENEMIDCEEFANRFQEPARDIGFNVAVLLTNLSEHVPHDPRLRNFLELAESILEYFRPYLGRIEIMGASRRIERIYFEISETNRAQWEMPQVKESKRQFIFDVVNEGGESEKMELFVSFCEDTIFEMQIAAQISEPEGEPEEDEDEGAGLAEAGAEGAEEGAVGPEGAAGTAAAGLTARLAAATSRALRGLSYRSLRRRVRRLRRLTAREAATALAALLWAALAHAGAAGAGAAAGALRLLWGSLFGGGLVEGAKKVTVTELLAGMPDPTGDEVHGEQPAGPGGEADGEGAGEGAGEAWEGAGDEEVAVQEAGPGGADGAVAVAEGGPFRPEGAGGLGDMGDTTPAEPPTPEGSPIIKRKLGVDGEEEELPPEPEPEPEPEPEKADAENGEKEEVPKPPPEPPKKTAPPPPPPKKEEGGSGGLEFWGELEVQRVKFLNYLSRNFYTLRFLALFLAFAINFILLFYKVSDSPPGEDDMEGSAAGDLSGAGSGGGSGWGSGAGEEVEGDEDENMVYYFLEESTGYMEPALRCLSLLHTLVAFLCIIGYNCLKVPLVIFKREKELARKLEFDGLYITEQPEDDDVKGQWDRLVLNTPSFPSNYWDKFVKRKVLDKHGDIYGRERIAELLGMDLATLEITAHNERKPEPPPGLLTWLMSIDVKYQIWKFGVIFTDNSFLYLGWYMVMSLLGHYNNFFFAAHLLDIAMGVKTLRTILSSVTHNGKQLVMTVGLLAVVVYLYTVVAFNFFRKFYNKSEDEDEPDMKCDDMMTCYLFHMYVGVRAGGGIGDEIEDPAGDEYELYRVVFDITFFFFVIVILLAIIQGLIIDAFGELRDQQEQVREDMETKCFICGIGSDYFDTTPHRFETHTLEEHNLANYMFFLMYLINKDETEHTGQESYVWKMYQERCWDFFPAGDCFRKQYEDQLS

Compound | binding affinity for α2-adrenergic receptors (α2-adrenergic receptors) | EC50 (RyR2) | effect on [3H]ryanodine binding to RyR2 (RyR2; cardiac SR, 30 μM Ca2+) | ΔFLT (mouse RyR2 NTR; AC-NTR biosensor, 0 to 100 μM, CPNQ/corbadrine decrease FLT, FA/tacrolimus increase FLT) | EC50 relative to CPNQ (fold higher) (mouse RyR2 NTR; FRET dose-response) | EC50 (mouse RyR2 NTR; read-out: EC50, FRET dose-response, AC-NTR biosensor, Hill fit, Table S4) | EC50 (RyR1 [1]; [Ca2+] 30 nM) | EC50 (RyR1 [1]; [Ca2+], 30 µM) | maximum inhibitory effect on [3H]ryanodine binding (RyR1 [1]; skeletal SR, 30 nM Ca2+) | effect on [3H]ryanodine binding to RyR1 (RyR1 [1]; skeletal SR, 30 μM Ca2+) | steady-state [Ca2+]t-sys (RyR1 leak) (RyR1 [2]) | electrically induced Ca2+ transient amplitude [3]
C[C@H](N)[C@H](O)c1ccc(O)c(O)c1 [corbadrine, 4-[(1R,2S)-2-amino-1-hydroxypropyl]benzene-1,2-diol] | very high binding affinity | 10 nM | slight activation at high concentrations | ≈ 0.35 ns | ~3 fold | 3600 nM | 20 nM | 15300 nM | ~70% | strongly increased |  | 
CCCCNc1ccc(C(=O)OCCN(C)C)cc1 [tetracaine] |  |  |  |  |  |  |  |  |  |  | full RyR inhibition | significantly decreased
